Measurements published in patent US20220235008A1, “PLEUROMULIN 7-CHLORO-1-CYCLOPROPYL-6-FLUORO-1,4-DIHYDRO-4-OXOQUINOLINE-3-CARBOXYLIC ACID ESTER WITH ANTIBACTERIAL ACTIVITY AND A METHOD OF PREPARING THE SAME” (SHAANXI UNIVERSITY OF SCIENCE AND TECHNOLOGY, priority 2021, published 2022).

Assays:
Format in all cases: cell-based
[1] = tested on: multi-resistant Staphylococcus aureus 206 (MRSA-206); test: paper diffusion method drug sensitivity test, MRSA-206; details: 30 μg/tablet; for Zone of inhibition, MRSA-206: paper 6.35 mm diameter, LB plate, 37° C., 24 h, >17 mm sensitive, 15 mm-16 mm intermediary, <14 mm drug resistance; for inhibitory effect (in words) on multi-drug resistant Staphylococcus aureus 206: paper diffusion, summary of FIGS. 1-3 and Table 1
Procedure: (§1) The antimicrobial efficacy was determined by a paper diffusion method drug sensitivity test.
(§2) Experimental strains: multi-resistant Staphylococcus aureus 206 (MRSA-206), multi-resistant Staphylococcus aureus 575 (MRSA-575), multi-resistant Staphylococcus aureus 596 (MRSA-596). The experimental strain was identified by Huashan Hospital Affiliated to Fudan University (Institute of Antibiotic of Fudan University).
(§3) Drug sensitive paper: The drug sensitive paper was a special drug sensitive paper with a diameter of 6.35 mm and a water absorption of 0.02 mL. The control drug was vancomycin (30 μg/tablet); the test drugs were pleuromulin (30 μg/tablet), 7-chloro-1-cyclopropyl-6-fluoro-1,4-dihydro-4-oxoquinoline-3-carboxylic acid (30 μg/tablet) and pleuromulin 7-chloro-1-cyclopropyl-6-fluoro-1,4-dihydro-4-oxoquinoline-3-carboxylic acid ester (30 μg/tablet).
(§4) Reagents: LB agar medium, LA broth medium, 0.5% DMSO solution.
(§5) The experimental strains were inoculated in non-selective medium and placed in air at 37° C. for 24 h. A single colony that grows well and inoculate it into broth medium was incubate at 35° C.±2° C. for 6 hours, and LA broth medium was used to calibrate the concentration of the bacterial solution to 0.5 Mie turbidimetric tube (1.5×10^8 CFU/mL). A bacterial suspension was obtained.
(§6) LB dry powder was weighed, sterilized at 103.4 Kpa, 121.3° C. high-pressure steam for 15 min, and then placed it in a 40° C.-50° C. water bath. A sterile empty plate (inner diameter 9 cm) was placed on the surface of the ultra-clean table water table, and […] to the plate. The thickness of each plate was 3 mm to 4 mm. After the plate was cooled at room temperature, it was stored in the refrigerator at 2° C.-8° C. A sterile cotton swab was used to dip the bacterial solution and to evenly coat the surface of the LB plate 3 times. After inoculation of the bacterial suspension, the LB plate was dried at room temperature for 3 min to 5 min. Sterile forceps were used to closely attach the antibacterial drug paper to the dish. The dish was put upside down and placed in a 37° C. incubator for 24 h. The results were observed by measuring the diameter. Taking 0.5% DMSO solution as a negative control, the antibacterial activity is expressed by the diameter of the inhibition zone. The inhibition zone >17 mm, sensitive; the inhibition zone of 15 mm-16 mm, intermediary; the inhibition zone <14 mm, drug resistance.

[2] = tested on: multi-resistant Staphylococcus aureus 575 (MRSA-575); test: paper diffusion method drug sensitivity test, MRSA-575; details: 30 μg/tablet; for Zone of inhibition, MRSA-575: paper 6.35 mm diameter, LB plate, 37° C., 24 h, >17 mm sensitive, 15 mm-16 mm intermediary, <14 mm drug resistance; for inhibitory effect (in words) on multi-drug resistant Staphylococcus aureus 575: paper diffusion, summary of FIGS. 1-3 and Table 1
Procedure: as §1, §2, §3, §4, §5, §6

[3] = tested on: multi-resistant Staphylococcus aureus 596 (MRSA-596); test: paper diffusion method drug sensitivity test, MRSA-596; details: 30 μg/tablet; for Zone of inhibition, MRSA-596: paper 6.35 mm diameter, LB plate, 37° C., 24 h, >17 mm sensitive, 15 mm-16 mm intermediary, <14 mm drug resistance; for inhibitory effect (in words) on multi-drug resistant Staphylococcus aureus 596: paper diffusion, summary of FIGS. 1-3 and Table 1
Procedure: as §1, §2, §3, §4, §5, §6

Row | SMILES | Zone of inhibition, MRSA-206 [1] | Zone of inhibition, MRSA-575 [2] | Zone of inhibition, MRSA-596 [3] | inhibitory effect (in words) on multi-drug resistant Staphylococcus aureus 206 [1] | inhibitory effect (in words) on multi-drug resistant Staphylococcus aureus 575 [2] | inhibitory effect (in words) on multi-drug resistant Staphylococcus aureus 596 [3]
1 | CN[C@H](CC(C)C)C(=O)N[C@H]1C(=O)N[C@@H](CC(N)=O)C(=O)N[C@H]2C(=O)N[C@H]3C(=O)N[C@H](C(=O)N[C@H](C(=O)O)c4cc(O)cc(O)c4-c4cc3ccc4O)[C@H](O)c3ccc(c(Cl)c3)Oc3cc2cc(c3O[C@@H]2O[C@H](CO)[C@@H](O)[C@H](O)[C@H]2O[C@H]2C[C@](C)(N)[C@H](O)[C@H](C)O2)Oc2ccc(cc2Cl)[C@H]1O [Vancomycin] | 15 mm | 17 mm | 23 mm |  |  | 
2 | O=C(O)c1cn(C2CC2)c2cc(Cl)c(F)cc2c1=O [7-Chloro-1-cyclopropyl-6-fluoro-1,4-dihydro-4-oxoquinoline-3-carboxylic acid] | 0 mm | 0 mm | 0 mm | no inhibitory effect | no inhibitory effect | no inhibitory effect
3 | C=C[C@]1(C)C[C@@H](OC(=O)CO)[C@]2(C)[C@H](C)CC[C@]3(CCC(=O)[C@H]32)[C@@H](C)[C@@H]1O [Pleuromulin] | 0 mm | 0 mm | 0 mm | no inhibitory effect | no inhibitory effect | no inhibitory effect
4 | C=C[C@]1(C)C[C@@H](OC(=O)COC(=O)C2CN(C3CC3)c3cc(Cl)c(F)cc3C2=O)[C@]2(C)CC[C@@H](C)[C@@]3(CCC(=O)[C@@H]23)[C@@H](C)[C@@H]1O (stereo partly drawn) [2-(((3aS,4R,5S,6S,8R,9R,9aR,12R)-5-hydroxy-4,6,9,12-tetramethyl-1-oxo-6-vinyldecahydro-3a, 9-propanocyclopenta[8]annulen-8-yl)oxy)-2-oxoethyl-7-chloro-1-cyclopropyl-6-fluoro-4-oxo-1,2,3,4-tetrahydroquinoline-3-carboxylate] | 16 mm | 12 mm | 25 mm | strong inhibitory effects | strong inhibitory effects | strong inhibitory effects
